Converted amounts (≈) assume the structure as drawn. “And” between values parts separate entries of the source, which are not always exact repeats. Equal values may be shown once.
Experiments:
Assay in all cases: ≥ marks a high value that may be exact or a test limit, other limits are often not marked, values filed in µg/mL are converted to µM
[1] = test system: Escherichia coli ATCC 25922
[2] = test system: Pseudomonas aeruginosa ATCC 27853
[3] = test system: Staphylococcus aureus ATCC 25923
[4] = test system: Escherichia coli
[5] = test system: Staphylococcus aureus

| Structure (SMILES) | MIC [1] | MIC [3] | other results |
| --- | --- | --- | --- |
| CC(C)[C@H](NC(=O)[C@H](CC(=O)O)NC(=O)[C@H](CO)NC(=O)[C@H](CCCCN)NC(=O)CNC(=O)[C@H](CO)NC(=O)[C@H](CO)NC(=O)[C@H](Cc1cnc[nH]1)NC(=O)[C@H](CCC(N)=O)NC(=O)[C@@H](N)CCC(=O)O)C(N)=O [EQHSSGKSDV] | > 100 µM | > 100 µM | MIC [2]: > 100 µM |
| CC[C@H](C)[C@H](NC(=O)[C@H](CCCN=C(N)N)NC(=O)[C@H](CO)NC(=O)[C@H](CC(C)C)NC(=O)[C@H](CC(C)C)NC(=O)CN)C(=O)N[C@@H](CCCCN)C(=O)N[C@H](C(=O)N[C@@H](CC(C)C)C(=O)N[C@@H](CC(C)C)C(N)=O)[C@@H](C)O [GLLSRIKTLL] | 100 µM (≈ 111 µg/mL) |  |  |
| CC(C)[C@H](N)C(=O)N[C@H]1CSSC[C@@H](C(=O)N[C@H](C(=O)NCC(=O)N[C@@H](CCCN=C(N)N)C(=O)O)C(C)C)NC(=O)[C@H](C(C)C)NC(=O)[C@@H]2CSSC[C@H](NC(=O)[C@H](Cc3ccc(O)cc3)NC1=O)C(=O)N[C@@H](CCCN=C(N)N)C(=O)N[C@@H](CCCN=C(N)N)C(=O)N[C@@H](CCCN=C(N)N)C(=O)N[C@@H](Cc1ccccc1)C(=O)N2 [VCYCRRRFCVCVGR] |  |  | MIC [4]: 0.349 µM (≈ 0.599 µg/mL) |
| CC[C@H](C)[C@H](NC(=O)CNC(=O)[C@H](CO)NC(=O)[C@H](CCCN=C(N)N)NC(=O)[C@@H](NC(=O)CNC(=O)[C@H](Cc1c[nH]c2ccccc12)NC(=O)[C@@H](N)CC(C)C)[C@@H](C)O)C(=O)N[C@@H](CCC(N)=O)C(=O)N1CCC[C@H]1C(N)=O [LWGTRSGIQP] | > 100 µM | > 100 µM | MIC [2]: > 100 µM |
| CC[C@H](C)[C@H](NC(=O)[C@H](CO)NC(=O)[C@H](C)NC(=O)[C@H](CC(C)C)NC(=O)CNC(=O)[C@H](C)NC(=O)[C@H](CCCCN)NC(=O)[C@H](C)NC(=O)[C@H](Cc1ccccc1)NC(=O)[C@H](CCCCN)NC(=O)[C@H](CCCCN)NC(=O)[C@H](CC(C)C)NC(=O)CNC(=O)[C@H](CCC(=O)O)NC(=O)[C@H](C)NC(=O)[C@H](C)NC(=O)[C@@H](NC(=O)[C@@H](NC(=O)[C@H](Cc1c[nH]c2ccccc12)NC(=O)[C@H](Cc1ccccc1)NC(=O)CN)[C@@H](C)O)[C@@H](C)O)C(=O)N[C@@H](CC(C)C)C(=O)N[C@@H](CC(N)=O)C(=O)N1CCC[C@H]1C(=O)N[C@@H](CCCCN)C(=O)O [GFWTTAAEGLKKFAKAGLASILNPK] |  |  | MIC [4]: 80 µM (≈ 210 µg/mL); MIC [5]: > 80 µM |
| CC[C@H](C)[C@H](NC(=O)[C@H](CCCCN)NC(=O)[C@@H]1CCCN1C(=O)[C@H](CC(C)C)NC(=O)[C@H](Cc1ccccc1)NC(=O)[C@H](CC(N)=O)NC(=O)[C@H](C)NC(=O)[C@H](C)NC(=O)[C@@H]1CSSC[C@H](NC(=O)[C@H](CC(C)C)NC(=O)CNC(=O)[C@H](C)NC(=O)[C@H](CC(C)C)NC(=O)[C@H](CC(C)C)NC(=O)[C@@H]2CCCN2C(=O)[C@H](CC(C)C)NC(=O)[C@@H](N)Cc2ccccc2)C(=O)N[C@@H](CCCCN)C(=O)N[C@@H]([C@@H](C)CC)C(=O)N[C@@H]([C@@H](C)O)C(=O)N[C@@H](CCCN=C(N)N)C(=O)N[C@@H](CCCCN)C(=O)N1)C(=O)N[C@@H](Cc1ccccc1)C(=O)O [FLPLLAGLCKITRKCAANFLPKIF] |  |  | MIC [4]: 7 µM (≈ 18.7 µg/mL); MIC [5]: 1.5 µM (≈ 4.01 µg/mL) |
| CC[C@H](C)[C@H](NC(=O)[C@H](CS)NC(=O)[C@H](CCCN=C(N)N)NC(=O)[C@@H](N)CC(C)C)C(=O)N[C@@H](C)C(=O)N[C@@H](CC(C)C)C(=O)N[C@@H](CCCN=C(N)N)C(=O)N[C@@H](CCCCN)C(=O)N[C@@H](CCCCN)C(N)=O [LRCIALRKK] |  |  | MIC [4]: 20.6 µM (≈ 22.6 µg/mL); MIC [5]: > 58.2 µM |
| CC[C@H](C)[C@H](NC(=O)[C@H](Cc1ccccc1)NC(=O)[C@H](CCCCN)NC(=O)[C@H](CC(C)C)NC(=O)[C@H](CC(C)C)NC(=O)[C@@H](N)CCCCN)C(=O)N[C@@H](CCCCN)C(=O)N[C@H](C(=O)N[C@@H](CC(C)C)C(=O)N[C@@H](CC(C)C)C(N)=O)[C@@H](C)O [KLLKFIKTLL] | 2.47 µM (≈ 3 µg/mL) | 5.75 µM (≈ 6.99 µg/mL) |  |
| CC[C@H](C)[C@H](NC(=O)[C@H](CC(C)C)NC(=O)[C@H](C)NC(=O)[C@H](Cc1ccccc1)NC(=O)[C@H](Cc1ccccc1)NC(=O)CN)C(=O)N[C@@H](C)C(=O)N[C@@H](CCCCN)C(=O)N[C@H](C(=O)N[C@H](C(=O)N[C@@H](CO)C(=O)N[C@@H](CO)C(=O)N1CCC[C@H]1C(=O)N[C@@H](CC(C)C)C(=O)N[C@@H](Cc1ccccc1)C(=O)N[C@@H](CCCCN)C(=O)N[C@H](C(=O)N[C@@H](CC(C)C)C(N)=O)[C@@H](C)O)[C@@H](C)CC)[C@@H](C)CC [GFFALIAKIISSPLFKTL] |  |  | MIC [4]: 20.3 µM (≈ 40 µg/mL) |
| CC[C@H](C)[C@H](N)C(=O)N[C@H](C(=O)N[C@@H](CCCCN)C(=O)N[C@@H](CCCCN)C(=O)N[C@@H](Cc1ccccc1)C(=O)N[C@@H](CC(C)C)C(=O)N[C@@H](Cc1cnc[nH]1)C(=O)N[C@@H](CO)C(=O)N[C@H](C(=O)N[C@@H](Cc1c[nH]c2ccccc12)C(=O)N[C@@H](CCCCN)C(=O)N[C@@H](Cc1ccccc1)C(=O)NCC(=O)N[C@@H](CCCCN)C(=O)N[C@@H](C)C(=O)N[C@@H](Cc1ccccc1)C(=O)N[C@H](C(=O)NCC(=O)N[C@@H](CCC(=O)O)C(=O)N[C@H](C(=O)N[C@@H](CCSC)C(=O)N[C@@H](CC(N)=O)C(=O)N[C@H](C(=O)O)[C@@H](C)CC)[C@@H](C)CC)C(C)C)[C@@H](C)CC)[C@@H](C)CC [IIKKFLHSIWKFGKAFVGEIMNI] | 2 µM (≈ 5.44 µg/mL) |  |  |
| CC(C)C[C@H](NC(=O)[C@H](Cc1ccccc1)NC(=O)[C@@H]1CCCN1C(=O)[C@H](Cc1c[nH]c2ccccc12)NC(=O)[C@H](Cc1ccc(O)cc1)NC(=O)[C@H](Cc1ccc(O)cc1)NC(=O)[C@@H]1CCCN1C(=O)[C@H](Cc1ccccc1)NC(=O)[C@H](CCCN=C(N)N)NC(=O)[C@H](CCCN=C(N)N)NC(=O)[C@@H](N)C(C)C)C(=O)N[C@@H](CCCN=C(N)N)C(=O)N[C@@H](CCCN=C(N)N)C(N)=O [VRRFPYYWPFLRR] | 32 µM (≈ 59.4 µg/mL) |  |  |
| NC(=O)[C@H](Cc1c[nH]c2ccccc12)NC(=O)[C@H](CCCN=C(N)N)NC(=O)[C@H](CCCN=C(N)N)NC(=O)[C@@H](N)Cc1c[nH]c2ccccc12 [WRRW] | > 285 µM | 285 µM (≈ 200 µg/mL) |  |
| NC(=O)[C@H](Cc1ccc(O)cc1)NC(=O)[C@H](CCCN=C(N)N)NC(=O)[C@H](Cc1c[nH]c2ccccc12)NC(=O)[C@H](CCCN=C(N)N)NC(=O)[C@@H](N)Cc1c[nH]c2ccccc12 [WRWRY] | 115 µM (≈ 99.9 µg/mL) | 57.7 µM (≈ 49.9 µg/mL) |  |
| CC[C@H](C)[C@H](NC(=O)[C@H](Cc1cnc[nH]1)NC(=O)[C@H](CCCN=C(N)N)NC(=O)[C@H](Cc1c[nH]c2ccccc12)NC(=O)[C@@H](NC(=O)[C@H](CCCN=C(N)N)NC(=O)[C@H](CCCCN)NC(=O)[C@H](C)NC(=O)CNC(=O)[C@H](CCCN=C(N)N)NC(=O)[C@H](CCSC)NC(=O)[C@H](C)NC(=O)[C@@H](N)CC(N)=O)C(C)C)C(N)=O [NAMRGAKRVWRHI] | 44.3 µM and 62.7 µM |  |  |
| CC(C)[C@H](NC(=O)[C@H](C)NC(=O)[C@@H](N)CCC(N)=O)C(=O)N[C@@H](CCC(=O)O)C(=O)N[C@@H](C)C(=O)N[C@@H](CCC(N)=O)C(=O)N[C@@H](CCCCN)C(=O)O [QAVEAQK] | 1620 µM (≈ 1250 µg/mL) | 809 µM (≈ 625 µg/mL) |  |
| CC[C@H](C)[C@H](NC(=O)CN)C(=O)N[C@@H](CCCN=C(N)N)C(=O)N[C@@H](CC(=O)O)C(=O)N[C@H](C(=O)N[C@@H](CC(C)C)C(=O)N[C@@H](CCCCN)C(=O)NCC(=O)N[C@@H](C)C(=O)N[C@@H](C)C(=O)N[C@@H](CCCCN)C(=O)N[C@@H](C)C(=O)N[C@@H](Cc1ccccc1)C(=O)N[C@H](C(=O)N[C@@H](CCCCN)C(=O)N[C@H](C(=O)N[C@H](C(=O)N[C@@H](C)C(=O)NCC(=O)N[C@@H](Cc1cnc[nH]1)C(=O)N[C@H](C(=O)N[C@@H](C)C(=O)N[C@@H](CC(N)=O)C(N)=O)[C@@H](C)CC)C(C)C)[C@@H](C)O)C(C)C)C(C)C [GIRDVLKGAAKAFVKTVAGHIAN] | 4 µM (≈ 9.34 µg/mL) |  |  |
| CC[C@H](C)[C@H](NC(=O)[C@H](CCCCN)NC(=O)[C@H](CCCCN)NC(=O)[C@@H](NC(=O)[C@@H](NC(=O)[C@H](CC(=O)O)NC(=O)[C@H](Cc1ccccc1)NC(=O)[C@H](CC(C)C)NC(=O)CN)[C@@H](C)CC)[C@@H](C)CC)C(=O)N[C@@H](Cc1c[nH]c2ccccc12)C(=O)N[C@@H](CCC(=O)O)C(=O)N[C@@H](CO)C(=O)N[C@@H](Cc1ccccc1)C(N)=O [GLFDIIKKIWESF] | > 125 µM |  | MIC [2]: > 125 µM |
| CC(C)C[C@H](NC(=O)[C@H](CC(C)C)NC(=O)[C@@H](NC(=O)[C@H](CCCCN)NC(=O)[C@H](C)NC(=O)[C@H](CCCN=C(N)N)NC(=O)[C@H](CCCCN)NC(=O)[C@H](CC(C)C)NC(=O)[C@H](CC(C)C)NC(=O)CN)[C@@H](C)O)C(N)=O [GLLKRAKTLL] | > 36.9 µM | > 36.9 µM |  |
| CC[C@H](C)[C@H](NC(=O)[C@H](C)NC(=O)CNC(=O)[C@H](C)NC(=O)[C@H](CCCCN)NC(=O)[C@H](CO)NC(=O)[C@H](C)NC(=O)[C@H](CCSC)NC(=O)CN)C(=O)N[C@@H](C)C(=O)NCC(=O)N[C@@H](CCCCN)C(=O)N[C@H](C(=O)N[C@@H](C)C(=O)N[C@@H](CCCCN)C(=O)N[C@H](C(=O)N[C@@H](C)C(=O)N[C@@H](Cc1c[nH]c2ccccc12)C(=O)N[C@@H](CCCCN)C(=O)N[C@@H](C)C(=O)N[C@@H](CC(C)C)C(N)=O)C(C)C)[C@@H](C)CC [GMASKAGAIAGKIAKVAWKAL] | 8.87 µM (≈ 18.1 µg/mL) |  |  |
| CC[C@H](C)[C@H](NC(=O)[C@H](CCSC)NC(=O)[C@H](CCCN=C(N)N)NC(=O)CNC(=O)[C@H](C)NC(=O)[C@H](Cc1cnc[nH]1)NC(=O)[C@H](Cc1ccccc1)NC(=O)[C@H](CC(C)C)NC(=O)CNC(=O)[C@H](CCCCN)NC(=O)[C@@H](NC(=O)[C@@H](NC(=O)[C@H](Cc1cnc[nH]1)NC(=O)[C@H](Cc1ccccc1)NC(=O)[C@H](Cc1ccccc1)NC(=O)[C@@H](N)Cc1ccccc1)[C@@H](C)CC)[C@@H](C)CC)C(=O)N[C@@H](Cc1cnc[nH]1)C(=O)NCC(=O)N[C@@H](CC(C)C)C(=O)N[C@H](C(=O)O)C(C)C [FFFHIIKGLFHAGRMIHGLV] |  |  | MIC [2]: 32 µM (≈ 74.9 µg/mL) |

From DBAASP
